Data taken from ChEMBL document CHEMBL4376829, “Discovery and biological evaluation of vinylsulfonamide derivatives as highly potent, covalent TEAD autopalmitoylation inhibitors” (Eur J Med Chem, 2019).
Active and inactive are the calls of the source. The calls are words filed in the database; no cut-off is given here.

Tests used:
[1] = test system: Transcriptional enhancer factor TEF-3 (Homo sapiens), Q15561 [C335A]; assay: Binding affinity to TEAD4-YBD C335A mutant (unknown origin) assessed as change in melting temperature by SYPRO-dye based thermal shift assay
[2] = target: Transcriptional enhancer factor TEF-3 (Homo sapiens, UniProt Q15561); assay: Inhibition of N-terminal His6-tagged human TEAD4-YBD (217 to 434 residues) expressed in Escherichia coli C43 (DE3) cells at 50 to 1000 nM preincubated for 2 hrs followed by palmitoyl alkyne-coenzyme A addition and measured after 30 mins in presence of BSA by immunoblot analysis
[3] = target: Tyrosine-protein kinase Lck (Homo sapiens) (UniProt P06239); assay: Inhibition of recombinant full-length human LCK at 10 uM using KVEKIGEGTYGVVYK as substrate measured after 40 mins in presence of [gamm33P]ATP by scintillation counting method relative to control
[4] = target: Tyrosine-protein kinase JAK1 (Homo sapiens) (UniProt P23458); assay: Inhibition of recombinant human JAK1 (866 to end residues) at 10 uM using GEEPLYWSFPAKK as substrate measured after 40 mins in presence of [gamm33P]ATP by scintillation counting method relative to control
Chain of Tyrosine-protein kinase JAK1 (Homo sapiens) (P23458 whole entry, the tested form may be a part): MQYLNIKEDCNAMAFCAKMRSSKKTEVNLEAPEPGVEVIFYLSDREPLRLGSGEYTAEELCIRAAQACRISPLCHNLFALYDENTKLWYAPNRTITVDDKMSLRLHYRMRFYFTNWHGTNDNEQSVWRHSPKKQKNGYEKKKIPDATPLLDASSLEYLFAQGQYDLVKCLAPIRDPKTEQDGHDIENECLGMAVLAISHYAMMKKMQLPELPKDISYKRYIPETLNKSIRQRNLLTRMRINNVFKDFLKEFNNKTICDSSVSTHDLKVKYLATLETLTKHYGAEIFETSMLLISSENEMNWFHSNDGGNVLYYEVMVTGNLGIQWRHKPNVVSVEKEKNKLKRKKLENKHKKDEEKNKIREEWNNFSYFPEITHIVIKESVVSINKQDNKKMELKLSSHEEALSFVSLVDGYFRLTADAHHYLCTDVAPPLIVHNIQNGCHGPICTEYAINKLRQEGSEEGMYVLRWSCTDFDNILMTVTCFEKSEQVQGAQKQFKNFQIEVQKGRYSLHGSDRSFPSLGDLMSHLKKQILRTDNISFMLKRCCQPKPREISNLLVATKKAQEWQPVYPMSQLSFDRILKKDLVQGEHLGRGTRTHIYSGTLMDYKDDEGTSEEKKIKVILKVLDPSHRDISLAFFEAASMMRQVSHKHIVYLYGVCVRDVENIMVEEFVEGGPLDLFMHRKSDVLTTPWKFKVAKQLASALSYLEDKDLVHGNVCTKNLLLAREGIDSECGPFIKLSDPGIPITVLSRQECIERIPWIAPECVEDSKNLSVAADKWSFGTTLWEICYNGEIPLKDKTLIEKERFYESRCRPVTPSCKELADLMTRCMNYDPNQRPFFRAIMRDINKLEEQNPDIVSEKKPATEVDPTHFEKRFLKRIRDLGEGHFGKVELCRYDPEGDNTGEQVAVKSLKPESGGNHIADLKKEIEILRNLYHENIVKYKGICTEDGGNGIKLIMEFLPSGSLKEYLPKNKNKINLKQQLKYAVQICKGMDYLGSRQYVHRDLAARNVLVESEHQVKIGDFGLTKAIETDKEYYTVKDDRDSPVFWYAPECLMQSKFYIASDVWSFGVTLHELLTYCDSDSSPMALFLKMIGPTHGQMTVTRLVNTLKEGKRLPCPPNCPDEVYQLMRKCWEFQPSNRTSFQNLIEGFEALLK

[5] = target: Insulin receptor (Homo sapiens) (UniProt P06213); assay: Inhibition of recombinant human IR activated (1005 to 1310 residues) at 10 uM using KKSRGDYMTMQIG as substrate after 40 mins in presence of [gamma33P]ATP by scintillation counting method relative to control
[6] = target: Inhibitor of nuclear factor kappa-B kinase subunit alpha (Homo sapiens) (UniProt O15111); assay: Inhibition of full length recombinant human IKKalpha at 10 uM after 40 mins in presence of [gamma33P]ATP by scintillation counting method relative to control
[7] = target: Macrophage colony-stimulating factor 1 receptor (Homo sapiens) (UniProt P07333); assay: Inhibition of recombinant human FMS (538 to end residues) at 10 uM using KKKSPGEYVNIEFG as substrate after 40 mins in presence of [gamma33P]ATP by scintillation counting method relative to control
[8] = species on record: Homo sapiens; assay: Inhibition of recombinant human Flt4 V1128L/H1146R mutant (800 to end residues) at 10 uM using GGEEEEYFELVKKKK as substrate measured after 40 mins in presence of [gamma33P]ATP by scintillation counting method relative to control
[9] = target: Receptor-type tyrosine-protein kinase FLT3 (Homo sapiens) (UniProt P36888); assay: Inhibition of recombinant human Flt3 (564 to end residues) at 10 uM using EAIYAAPFAKKK as substrate after 40 mins in presence of [gamma33P]ATP by scintillation counting method relative to control
[10] = target: Tyrosine-protein kinase Fgr (Homo sapiens) (UniProt P09769); assay: Inhibition of recombinant human FGR (2 to end residues) at 10 uM using poly(Glu, Tyr) 4:1 as substrate after 40 mins in presence of [gamma33P]ATP by scintillation counting method relative to control
[11] = target: Ephrin type-B receptor 4 (Homo sapiens) (UniProt P54760); assay: Inhibition of human EphB4 (561 to end residues) using poly (Glu, Tyr) 4:1 as substrate at 10 uM after 40 mins in presence of [gamma-33P]-ATP by scintillation counting relative to control
Chain of Ephrin type-B receptor 4 (Homo sapiens) (P54760 whole entry): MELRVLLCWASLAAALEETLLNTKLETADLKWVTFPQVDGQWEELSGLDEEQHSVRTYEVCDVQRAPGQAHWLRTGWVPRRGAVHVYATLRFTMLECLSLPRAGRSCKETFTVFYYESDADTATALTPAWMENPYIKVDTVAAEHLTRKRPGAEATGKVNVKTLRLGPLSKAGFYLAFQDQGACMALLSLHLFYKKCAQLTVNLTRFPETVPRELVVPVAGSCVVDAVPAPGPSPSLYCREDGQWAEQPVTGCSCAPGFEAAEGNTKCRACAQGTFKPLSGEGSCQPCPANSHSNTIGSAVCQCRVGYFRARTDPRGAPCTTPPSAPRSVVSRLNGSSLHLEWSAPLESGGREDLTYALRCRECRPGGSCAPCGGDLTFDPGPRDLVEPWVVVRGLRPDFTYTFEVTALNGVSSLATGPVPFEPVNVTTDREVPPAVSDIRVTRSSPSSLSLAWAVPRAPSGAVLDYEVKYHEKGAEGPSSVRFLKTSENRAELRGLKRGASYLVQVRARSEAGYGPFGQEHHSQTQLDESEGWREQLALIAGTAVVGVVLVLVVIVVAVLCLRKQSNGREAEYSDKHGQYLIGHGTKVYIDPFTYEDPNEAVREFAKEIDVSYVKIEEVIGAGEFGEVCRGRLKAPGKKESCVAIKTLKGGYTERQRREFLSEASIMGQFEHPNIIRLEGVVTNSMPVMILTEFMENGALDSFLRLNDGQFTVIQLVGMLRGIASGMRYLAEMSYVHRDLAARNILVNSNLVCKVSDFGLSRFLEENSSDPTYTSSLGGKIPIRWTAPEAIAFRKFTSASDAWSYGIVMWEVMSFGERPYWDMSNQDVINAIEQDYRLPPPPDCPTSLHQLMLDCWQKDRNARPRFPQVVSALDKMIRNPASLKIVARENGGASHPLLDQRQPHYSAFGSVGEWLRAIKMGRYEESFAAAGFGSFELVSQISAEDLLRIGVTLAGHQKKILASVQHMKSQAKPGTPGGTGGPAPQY

[12] = target: Serine/threonine-protein kinase 17A (Homo sapiens) (UniProt Q9UEE5); assay: Inhibition of full-length recombinant human DRAK1 at 10 uM using KKLNRTLSFAEPG as substrate after 40 mins by in presence of [gamma33P]ATP by scintillation counting method relative to control
[13] = target: Platelet-derived growth factor receptor alpha (Homo sapiens) (UniProt P16234); assay: Inhibition of recombinant human PDGFRalpha (550 to end residues) at 10 uM using poly(Glu, Tyr) 4:1 as substrate measured after 40 mins in presence of [gamma33P]ATP by scintillation counting method relative to control
[14] = target: Serine/threonine-protein kinase NLK (Homo sapiens) (UniProt Q9UBE8); assay: Inhibition of recombinant human NLK (121 to end residues) at 10 uM using myelin basic protein as substrate measured after 40 mins in presence of [gamma33P]ATP by scintillation counting method relative to control
[15] = target: CDK3/Cyclin E (Homo sapiens) (UniProt P24864+Q00526); assay: Inhibition of recombinant full-length human CDK3/cyclinE at 10 uM using histone H1 as substrate measured after 40 mins in presence of [gamma33P]ATP by scintillation counting method relative to control; type: protein-complex assay
[16] = target: CDC7/Cyclin B1 (Homo sapiens) (UniProt P14635+O00311); assay: Inhibition of full-length recombinant human Cdc7/CyclinB1 at 10 uM using histone H1 as substrate after 120 mins by in presence of [gamma33P]ATP by scintillation counting method relative to control; type: protein-complex assay
[17] = target: Mitogen-activated protein kinase kinase kinase 9 (Homo sapiens) (UniProt P80192); assay: Inhibition of recombinant human MLK1 (134 to 414 residues) at 10 uM using casein as substrate measured after 40 mins in presence of [gamma33P]ATP by scintillation counting method relative to control
[18] = species on record: Homo sapiens; assay: Inhibition of recombinant full-length human ATRIP/ATR M211T mutant at 10 uM using GST-cMyc-p53 as substrate measured after 40 mins by fluorescence assay relative to control
[19] = target: Tyrosine-protein kinase ABL2 (Homo sapiens) (UniProt P42684); assay: Inhibition of recombinant human ARG (38 to end residues) at 10 uM using EAIYAAPFAKKK as substrate measured after 40 mins in presence of [gamma33P]ATP by scintillation counting method relative to control
[20] = target: Activin receptor type-2A (Homo sapiens) (UniProt P27037); assay: Inhibition of recombinant human ACTR2 (162 to end residues) at 10 uM using casein as substrate after 120 mins in presence of [gamma33P]ATP by scintillation counting method relative to control
[21] = test system: Angiopoietin-1 receptor (Homo sapiens), Q02763 [Q939H,Q940H]; assay: Inhibition of human Tie2 Q939H/Q940H mutant (771 to end residues) at 10 uM using poly(Glu, Tyr) 4:1 as substrate measured after 40 mins in presence of [gamma33P]ATP by scintillation counting method relative to control
[22] = target: Serine/threonine-protein kinase WNK1 (Homo sapiens) (UniProt Q9H4A3); assay: Inhibition of recombinant human WNK1 (1 to 491 residues) at 10 uM using myelin basic protein as substrate measured after 120 mins in presence of [gamm33P]ATP by scintillation counting method relative to control
Chain of Serine/threonine-protein kinase WNK1 (Homo sapiens) (Q9H4A3 whole entry, looked up, the tested form may be a part): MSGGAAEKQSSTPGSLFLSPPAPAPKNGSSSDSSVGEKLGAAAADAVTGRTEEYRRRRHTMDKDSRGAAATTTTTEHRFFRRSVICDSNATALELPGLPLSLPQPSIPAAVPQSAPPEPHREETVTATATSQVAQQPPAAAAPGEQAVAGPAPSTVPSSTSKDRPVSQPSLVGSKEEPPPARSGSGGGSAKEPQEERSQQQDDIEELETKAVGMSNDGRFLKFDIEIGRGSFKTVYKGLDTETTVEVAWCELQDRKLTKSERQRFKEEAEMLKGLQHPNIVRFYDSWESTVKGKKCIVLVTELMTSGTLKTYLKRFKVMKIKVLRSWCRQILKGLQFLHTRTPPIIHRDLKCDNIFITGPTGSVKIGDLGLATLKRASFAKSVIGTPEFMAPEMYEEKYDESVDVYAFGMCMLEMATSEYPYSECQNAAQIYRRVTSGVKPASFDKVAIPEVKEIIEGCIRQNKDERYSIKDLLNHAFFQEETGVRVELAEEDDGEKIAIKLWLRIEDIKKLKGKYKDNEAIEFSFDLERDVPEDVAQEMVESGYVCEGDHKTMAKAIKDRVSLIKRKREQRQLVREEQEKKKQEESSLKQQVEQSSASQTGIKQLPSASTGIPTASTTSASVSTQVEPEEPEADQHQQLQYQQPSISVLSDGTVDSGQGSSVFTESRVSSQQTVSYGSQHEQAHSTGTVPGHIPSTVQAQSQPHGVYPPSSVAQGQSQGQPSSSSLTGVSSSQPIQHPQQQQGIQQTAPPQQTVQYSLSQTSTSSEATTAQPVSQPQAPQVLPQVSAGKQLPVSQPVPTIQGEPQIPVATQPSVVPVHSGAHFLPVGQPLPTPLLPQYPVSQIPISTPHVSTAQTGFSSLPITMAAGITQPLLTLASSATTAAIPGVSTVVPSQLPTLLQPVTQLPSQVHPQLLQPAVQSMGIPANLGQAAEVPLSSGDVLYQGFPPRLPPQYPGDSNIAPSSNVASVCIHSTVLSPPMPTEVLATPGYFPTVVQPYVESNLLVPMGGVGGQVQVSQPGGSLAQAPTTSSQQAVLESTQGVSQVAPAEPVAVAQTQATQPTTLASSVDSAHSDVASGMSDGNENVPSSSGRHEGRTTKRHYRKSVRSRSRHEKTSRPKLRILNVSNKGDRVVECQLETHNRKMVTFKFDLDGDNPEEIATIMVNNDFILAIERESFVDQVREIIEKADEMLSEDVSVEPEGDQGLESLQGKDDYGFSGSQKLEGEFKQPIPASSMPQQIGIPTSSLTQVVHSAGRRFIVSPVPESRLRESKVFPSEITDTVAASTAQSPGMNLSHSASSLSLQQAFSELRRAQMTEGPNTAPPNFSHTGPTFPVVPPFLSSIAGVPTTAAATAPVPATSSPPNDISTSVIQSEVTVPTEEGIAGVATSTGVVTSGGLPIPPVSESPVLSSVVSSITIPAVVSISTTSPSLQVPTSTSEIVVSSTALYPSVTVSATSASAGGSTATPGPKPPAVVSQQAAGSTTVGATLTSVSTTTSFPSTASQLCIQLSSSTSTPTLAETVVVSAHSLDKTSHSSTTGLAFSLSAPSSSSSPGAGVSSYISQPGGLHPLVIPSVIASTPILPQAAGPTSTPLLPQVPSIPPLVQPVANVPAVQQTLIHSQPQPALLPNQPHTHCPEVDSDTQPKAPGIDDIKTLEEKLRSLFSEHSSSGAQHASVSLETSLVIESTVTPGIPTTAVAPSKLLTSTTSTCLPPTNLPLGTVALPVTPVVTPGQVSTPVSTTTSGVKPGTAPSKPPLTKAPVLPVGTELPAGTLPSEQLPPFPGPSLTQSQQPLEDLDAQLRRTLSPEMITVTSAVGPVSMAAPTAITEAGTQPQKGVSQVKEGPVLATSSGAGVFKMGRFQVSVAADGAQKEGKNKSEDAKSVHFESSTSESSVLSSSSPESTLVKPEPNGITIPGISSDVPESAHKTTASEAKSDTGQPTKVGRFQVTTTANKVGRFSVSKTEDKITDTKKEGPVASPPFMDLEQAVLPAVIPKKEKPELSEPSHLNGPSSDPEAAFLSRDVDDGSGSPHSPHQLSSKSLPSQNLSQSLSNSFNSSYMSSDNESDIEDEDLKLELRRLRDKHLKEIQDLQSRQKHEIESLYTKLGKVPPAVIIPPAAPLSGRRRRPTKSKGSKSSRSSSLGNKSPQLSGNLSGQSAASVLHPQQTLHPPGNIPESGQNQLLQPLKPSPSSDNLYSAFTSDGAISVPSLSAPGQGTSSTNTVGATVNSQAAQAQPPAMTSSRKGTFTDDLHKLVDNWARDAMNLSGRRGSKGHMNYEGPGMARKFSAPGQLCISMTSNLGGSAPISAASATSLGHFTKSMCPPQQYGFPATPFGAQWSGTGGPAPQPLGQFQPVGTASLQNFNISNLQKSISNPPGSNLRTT

[23] = target: Tyrosine-protein kinase ZAP-70 (Homo sapiens) (UniProt P43403); assay: Inhibition of recombinant full-length human ZAP70 at 10 uM using poly(Glu, Tyr) 4:1 as substrate measured after 40 mins in presence of [gamma33P]ATP by scintillation counting method5 relative to control
Chain of Tyrosine-protein kinase ZAP-70 (Homo sapiens) (P43403 whole entry): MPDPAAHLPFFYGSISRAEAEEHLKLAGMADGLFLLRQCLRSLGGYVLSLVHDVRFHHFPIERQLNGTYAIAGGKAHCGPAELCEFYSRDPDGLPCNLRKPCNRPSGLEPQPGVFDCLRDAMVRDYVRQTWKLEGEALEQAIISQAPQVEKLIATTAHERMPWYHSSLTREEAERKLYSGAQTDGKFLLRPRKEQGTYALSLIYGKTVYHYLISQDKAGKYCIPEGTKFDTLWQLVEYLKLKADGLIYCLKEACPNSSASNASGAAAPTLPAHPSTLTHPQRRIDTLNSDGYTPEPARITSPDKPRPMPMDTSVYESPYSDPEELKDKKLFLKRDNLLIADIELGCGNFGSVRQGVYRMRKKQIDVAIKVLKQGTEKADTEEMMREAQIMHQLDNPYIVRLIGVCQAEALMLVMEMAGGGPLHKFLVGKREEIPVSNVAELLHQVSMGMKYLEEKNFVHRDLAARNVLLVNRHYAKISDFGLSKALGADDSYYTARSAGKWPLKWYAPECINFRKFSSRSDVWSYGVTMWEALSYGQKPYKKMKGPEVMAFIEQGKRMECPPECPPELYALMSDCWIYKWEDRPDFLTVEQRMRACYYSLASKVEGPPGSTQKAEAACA

C=CS(=O)(=O)Nc1ccc(Cc2ccc3ccccc3c2)cc1
ΔTm [1]: 5.2 °C
inhibition [2]: Active
inhibition [3]: 6%
inhibition [4]: 7%
inhibition [5]: 5%
inhibition [6]: -2%
inhibition [7]: 3%
inhibition [8]: 15%
inhibition [9]: 8%
inhibition [10]: 15%
inhibition [11]: 8%
inhibition [12]: -1%
inhibition [13]: 1%
inhibition [14]: 2%
inhibition [15]: 7%
inhibition [16]: 21%
inhibition [17]: 8%
inhibition [18]: 3%
inhibition [19]: 16%
inhibition [20]: -5%
inhibition [21]: 18%
inhibition [22]: -10%
inhibition [23]: 5%
